Source: paper PMC10067442, “In vivo quantitative high-throughput screening for drug discovery and comparative toxicology” (Disease Models & Mechanisms, 2023)
“Also recorded” adds a separate entry of the source. Where a name gives a salt, the structure may show the parent alone. Residues, ends and D or L forms follow the SMILES beside them. *: point of attachment. Cbz = O=C(OCc1ccccc1)*

Columns and labels:
Format in all cases: in vivo, Caenorhabditis elegans
C. elegans strain PE254 [1] = experiment: C. elegans LSC qHTS viability assay, Anti-Infectives library primary screen (BG-fed, 384-well); details: for activity on C. elegans viability in primary qHTS (in words): seven-point titration
Method: Levamisole, ivermectin and albendazole were purchased from Sigma-Aldrich. Stock solutions of all compounds were prepared at 10 mM in DMSO, and ivermectin was diluted to a 10 µM working dilution in DMSO. […] Of these, 284 (38%) are approved for clinical use in the United States, 32 (4%) were previously marketed for use in the United States, and 62 (8%) are used clinically outside of the United States. […] DMSO stock solutions of were arrayed in Echo-qualified 384-well cyclic olefin copolymer plates (Labcyte) in qHTS inter-plate dilution with seven concentrations, 1:5 dilution, resulting in a final concentration range of 2.5–20 mM high concentration titrated to 160 nM to 1.28 µM low concentration ([Yasgar et al., 2008]). ‘Assay-ready’ plates were prepared in 384-well uClear microtiter plates (Greiner BioOne), with compounds acoustically dispensed at 250 nl per well with an Echo 555 in the above inter-plate titration array. Two plates with DMSO added across the compound field at the same volume were prepared as screening controls (‘uniformity plates’). DMSO vehicle control was added to every well of column 1, and levamisole cytotoxicity control was added at a high concentration of 10 mM in wells 1–8 and titrated 1:3, starting at a high concentration of 10 mM to 4.57 µM in wells 9–16 of column 2 of every plate. Additionally, ivermectin, levamisol and albendazole were plated as internal controls on one assay plate in 16-point, 1:2 titration down six replicate columns per compound, starting at a high concentration of 10 µM (ivermectin) or 10 mM (levamisole and albendazole). Assay-ready plates were sealed and frozen at −80°C until use.
C. elegans strain PE254 were collected from 12 NGM plates as above, transferred to 250 ml S medium supplemented with OP50 E. coli pellet collected from 2 l overnight culture, and grown for 5 days at 21°C with vigorous shaking in an Incu-Shaker Mini Shaking Incubator (Benchmark Scientific, Inc.). Eggs were axenized as above and hatched overnight in M9 buffer at 21°C and shaken at 65 rpm. Assay ready plates were thawed and allowed to equilibrate to ambient temperature. BGs in S medium (30 µl/well) at an OD600=0.85 were manually added across plates with a Capp pipette. Synchronized L1 worms from above were collected, diluted and plated at ten worms/30 µl/well with a Capp pipette into assay-ready microtiter plates pre-plated with BGs and compounds (240-fold dilution). […] No ethical approval or guidance is needed for working with nematodes.
Data from the Anti-Infectives screen were normalized by plate to corresponding intra-plate controls as previously described ([Inglese et al., 2006]). Assay statistics were calculated using the same respective controls. Total object ‘GFP’ area (µm^2) and number of worms were normalized to the average signal of DMSO-treated wells as zero percent neutral control, and the average signal of 41.7 µM levamisole-treated wells as −100% activity. In-house software was used to fit the resulting inter-plate titration data to the standard Hill equation, and concentration–response curves were classified by activity as previously described ([Southall et al., 2009]). Curve fits assignments of −1.1, −1.2, −2.1, −2.2 and −3 were considered active and visually confirmed.

C. elegans strain PE254 [2] = experiment: Life-stage distribution analysis by COPAS flow cytometry after 7-day treatment; details: 7-day treatment at ∼EC75-80, mixed population of 2000 worms/well
Method: After 7 days of compound treatment in six-well culture plates seeded with a mixed population of 2000 C. elegans strain PE254, a life-stage distribution analysis was determined by TOF and EC using the COPAS FP BioSorter, followed by bulk collection in a 50 ml conical tube for use in proteomics studies.

C. elegans strain PE254 [3] = experiment: Follow-up 11-point re-test, C. elegans LSC viability; details: 11-point titration, day 7, GFP area and worm number
Method: C. elegans strain PE254 were collected from six NGM plates and washed. […] Assay-ready plates were prepared as above with an 11-point, 1:3 titration of 96 compounds identified as active from the qHTS screen based on curve classification and maximum response. […] Data were normalized as above, and concentration–response curves were fit in Prism with nonlinear regression log(agonist) versus response–variable slope (four parameters) fit.

C. elegans strain PE254 [4] = experiment: 384-well LSC C. elegans viability assay, life-stage sorted worms on BGs or OP50 live bacteria (assay development); details: all life stages grown on BGs, by day 1; read-out: half-maximal effective concentration (EC50)
Method: Strain PE254 worms were collected from eight NGM plates as above. The mixed population of C. elegans was resuspended in 30 ml 1× S basal buffer and plated at ten GFP worms per well of each life stage into respective wells of 384-well uClear microtiter plates with the COPAS biosorter run with the calibration protocol and settings from above. E. coli BGs diluted to OD600=0.6 or OP50 live bacteria diluted to OD600=0.05, 0.10, 0.15 or 0.2 in S medium were added to respective plates at 30 μl per well manually with a Capp pipette (BioVentures, Inc.). […] Plates were covered with a Breath-Easy seal (Thermo Fisher Scientific) and weighted metal lids with gas exchange pores (Fujifilm Wako Automation Corp.). Worms were grown in the presence of compound or DMSO for 7 days at 21°C and 65 rpm in an Incu-Shaker (Benchmark Scientific). Worms were imaged every 24–72 h on an Acumen eX3 laser scanning cytometer (STP Labtech). Plates were read with default reader settings, with scan 1 488 nm laser, green (FL-2) detection channel, 400 voltage, sensitivity of 2 and triggered in the green PMT. Green objects detected by the reader were identified as worms based on the filtered FL-2 object parameters perimeter (100-2200), area (1000-180,000), and peak intensity (150-1500). Viability was monitored as an increase in GFP fluorescence quantified as total number and total object area (µm^2) of FL-2 filtered objects per well. LSC data were collected using cellista 4 (version 4.3.4.0, STP Labtech).
Concentration–response curves for average total filtered FL-2 object area (‘GFP area’) and total filtered FL-2 number of objects (‘number of worms’) for each respective compound were fit with the nonlinear regression log (agonist) versus response–variable slope (four parameters) algorithm in Prism (GraphPad Software). Hillslope and/or EC50 constraints were applied as needed to all life stages per compound across the 7-day time course, and EC50 values were calculated. […] (3) [drawing 3] where σ is the mean signal and µ is the standard deviation for the treated (p) or neutral (n) controls.

[5] = Caenorhabditis elegans, Fig. 3D, read-out: qHTS potency based on GFP area
[6] = Caenorhabditis elegans, Fig. 3D, read-out: qHTS potency based on worm number

CC(C)C[C@H](NC(=O)[C@H](CCc1ccccc1)NC(=O)CN1CCOCC1)C(=O)N[C@@H](Cc1ccccc1)C(=O)N[C@@H](CC(C)C)C(=O)[C@@]1(C)CO1 [Carfilzomib]
activity on C. elegans viability in primary qHTS (in words) (C. elegans strain PE254 [1]; GFP area): Inactive

CC(=O)Nc1cccc(-n2c(=O)n(C3CC3)c(=O)c3c(Nc4ccc(I)cc4F)n(C)c(=O)c(C)c32)c1 [Trametinib]
effect on life stage viability (in words) (C. elegans strain PE254 [2]): potent larval-stage depletion | effect on life stage viability (in words) (C. elegans strain PE254 [2]; listed as 9): affecting life-stage progression or number

C[C@H](NC(=O)[C@@H](O)c1cc(F)cc(F)c1)C(=O)N[C@@H]1C(=O)N(C)c2ccccc2-c2ccccc21 [LY-411575]
effect on life stage viability (in words) (C. elegans strain PE254 [2]): affecting life-stage progression or number

Cc1noc2c1-c1ccccc1C(c1ccc(Cl)cc1)=N[C@H]2CC(N)=O [CPI-0610]
activity on C. elegans viability in primary qHTS (in words) (C. elegans strain PE254 [1]; GFP area): Active

COc1cc2c(cc1-c1c(C)noc1C)ncc1[nH]c(=O)n([C@H](C)c3ccccn3)c12 [I-BET151]
activity on C. elegans viability in primary qHTS (in words) (C. elegans strain PE254 [1]; GFP area): inactive

Cc1sc2c(c1C)C(c1ccc(Cl)cc1)=N[C@@H](CC(=O)OC(C)(C)C)c1nnc(C)n1-2 [JQ1]
activity on C. elegans viability in primary qHTS (in words) (C. elegans strain PE254 [1]; GFP area): Active

O=C(C1CCCCC1)N1CC(=O)N2CCc3ccccc3C2C1 (centres unmarked) [Praziquantel]
curve classification (CC) (C. elegans strain PE254 [1]; GFP area, day 7): 4 | activity on C. elegans viability in primary qHTS (in words) (C. elegans strain PE254 [1]; GFP area): not detected; also recorded: not identified as active | effect on life stage viability (in words) (C. elegans strain PE254 [2]): no effect

O=C(Oc1ccc([N+](=O)[O-])cc1)N1CCC(C(O)(c2ccc3c(c2)OCO3)c2ccc3c(c2)OCO3)CC1 [JZL-184]
activity on C. elegans viability in primary qHTS (in words) (C. elegans strain PE254 [1]; GFP area): low potency and efficacy | activity on C. elegans viability in follow-up (in words) (C. elegans strain PE254 [3]): moderately active

Cn1cnc2c(F)c(Nc3ccc(Br)cc3Cl)c(C(=O)NOCCO)cc21 [Selumetinib]
effect on life stage viability (in words) (C. elegans strain PE254 [2]): no discernable effect | effect on life stage viability (in words) (C. elegans strain PE254 [2]; listed as 10): inactive

CC(C)C[C@H](NC(=O)[C@@H](NC(=O)c1cccc(-c2ccccc2)n1)[C@@H](C)O)B(O)O [Delanzomib]
EC50 (C. elegans strain PE254 [1]; [5]): 405 nM | EC50 (C. elegans strain PE254 [1]; [6]): 311 nM

O=[N+]([O-])c1ccc(S(=O)(=O)N2CCN(c3ccnc4cc(Cl)ccc34)CC2)c([N+](=O)[O-])c1 [VR23]
activity on C. elegans viability in primary qHTS (in words) (C. elegans strain PE254 [1]; GFP area): Inactive

CC(C)C[C@H](NC(=O)CNC(=O)c1cc(Cl)ccc1Cl)B1OC(=O)C(CC(=O)O)(CC(=O)O)O1 [Ixazomib citrate]
EC50 (C. elegans strain PE254 [1]; [5]): 411 nM | EC50 (C. elegans strain PE254 [1]; [6]): 382 nM

O=C(/C=C\n1cnc(-c2cc(C(F)(F)F)cc(C(F)(F)F)c2)n1)NNc1cnccn1 [Selinexor]
activity on C. elegans viability in primary qHTS (in words) (C. elegans strain PE254 [1]; GFP area): low potency and efficacy | activity on C. elegans viability in follow-up (in words) (C. elegans strain PE254 [3]): moderately active | effect on life stage viability (in words) (C. elegans strain PE254 [2]): inactive

C=CC(=O)N1C/C(=C\c2ccc([N+](=O)[O-])cc2)C(=O)/C(=C/c2ccc([N+](=O)[O-])cc2)C1 [b-AP15]
activity on C. elegans viability in primary qHTS (in words) (C. elegans strain PE254 [1]; GFP area): Inactive

Cc1cc(/C=C/c2ccc3cc(N(C)C)ccc3[n+]2C)c(C)n1-c1ccccc1 [Pyrvinium pamoate]
activity on C. elegans viability in primary qHTS (in words) (C. elegans strain PE254 [1]; GFP area): active

CC(=O)OC[C@H]1O[C@@H]([S-])[C@H](OC(C)=O)[C@@H](OC(C)=O)[C@@H]1OC(C)=O.CCP(CC)CC.[Au+] [Auranofin, auranofin]
activity on C. elegans viability in follow-up (in words) (C. elegans strain PE254 [3]): best activity; also recorded: potent and/or efficacious toxicity

CC(C)C[C@H](NC(=O)[C@H](Cc1ccccc1)NC(=O)c1cnccn1)B(O)O [Bortezomib]
EC50 (C. elegans strain PE254 [1]; [5]): 888 nM | EC50 (C. elegans strain PE254 [1]; [6]): 592 nM | effect on life stage viability (in words) (C. elegans strain PE254 [2]): potent larval-stage depletion | effect on life stage viability (in words) (C. elegans strain PE254 [2]; listed as 5): affecting life-stage progression or number

CC(C)C[C@@H](C=O)NC(=O)[C@H](CC(C)C)NC(=O)[C@H](CC(C)C)NC(=O)OCc1ccccc1 [MG-132] (Cbz-Leu-Leu-Leu-aldehyde)
activity on C. elegans viability in primary qHTS (in words) (C. elegans strain PE254 [1]; GFP area): Inactive | effect on life stage viability (in words) (C. elegans strain PE254 [2]): no discernable effect

CC(C)C[C@H](NC(=O)CNC(=O)c1cc(Cl)ccc1Cl)B(O)O [Ixazomib]
EC50 (C. elegans strain PE254 [1]; [5]): 1130 nM | EC50 (C. elegans strain PE254 [1]; [6]): 863 nM

CC(C)(C)c1cc(C=C(C#N)C#N)cc(C(C)(C)C)c1O [Tyrphostin A9, tyrphostin A9]
activity on C. elegans viability in follow-up (in words) (C. elegans strain PE254 [3]): best activity; also recorded: potent and/or efficacious toxicity

O=C(NO)c1cccc(C(=O)NCCc2ccccc2)c1 [BRD73954]
activity on C. elegans viability in primary qHTS (in words) (C. elegans strain PE254 [1]; GFP area): inactive

CCCC[C@@H](C=O)NC(=O)[C@H](CC(C)C)NC(=O)OCc1ccccc1 [Calpeptin]
activity on C. elegans viability in primary qHTS (in words) (C. elegans strain PE254 [1]; GFP area): Inactive

Cc1sc2c(c1C)C(c1ccc(Cl)cc1)=N[C@@H](CC(=O)Nc1ccc(O)cc1)c1nnc(C)n1-2 [OTX-015]
activity on C. elegans viability in primary qHTS (in words) (C. elegans strain PE254 [1]; GFP area): inactive

oligomycin A
activity on C. elegans viability in follow-up (in words) (C. elegans strain PE254 [3]): best activity; also recorded: potent and/or efficacious toxicity

O=C(/C=C\n1cnc(-c2cc(C(F)(F)F)cc(C(F)(F)F)c2)n1)NNc1ccccn1 [Verdinexor, verdinexor]
activity on C. elegans viability in primary qHTS (in words) (C. elegans strain PE254 [1]; GFP area): low potency and efficacy | activity on C. elegans viability in follow-up (in words) (C. elegans strain PE254 [3]): moderately active

CC(=O)N1c2ccc(-c3ccc(C(=O)O)cc3)cc2[C@H](Nc2ccc(Cl)cc2)C[C@@H]1C [GSK1324726A]
activity on C. elegans viability in primary qHTS (in words) (C. elegans strain PE254 [1]; GFP area): Active

COC(=O)[C@]1(C)CC[C@]2(C)CC[C@]3(C)C4=CC=C5C(=CC(=O)C(O)=C5C)[C@]4(C)CC[C@@]3(C)[C@@H]2C1 [Pristimerin, pristimerin]
activity on C. elegans viability in follow-up (in words) (C. elegans strain PE254 [3]): potent and/or efficacious toxicity

Ivermectin
activity on C. elegans viability in primary qHTS (in words) (C. elegans strain PE254 [1]; GFP area): active | EC50 (C. elegans strain PE254 [1]; treatment day 2, internal control, 16-point titration, six replicate wells, read-out: Treatment day, EC50 (GFP area)): 17 ± 3.9 nM | EC50 (C. elegans strain PE254 [1]; treatment day 3, internal control, 16-point titration, six replicate wells, read-out: Treatment day, EC50 (GFP area)): 16.9 ± 2.3 nM | EC50 (C. elegans strain PE254 [1]; treatment day 4, internal control, 16-point titration, six replicate wells, read-out: Treatment day, EC50 (GFP area)): 14 ± 1.7 nM | EC50 (C. elegans strain PE254 [1]; treatment day 5, internal control, 16-point titration, six replicate wells, read-out: Treatment day, EC50 (GFP area)): 14.6 ± 1.1 nM | EC50 (C. elegans strain PE254 [1]; treatment day 6, internal control, 16-point titration, six replicate wells, read-out: Treatment day, EC50 (GFP area)): 13.6 ± 1.1 nM | EC50 (C. elegans strain PE254 [1]; treatment day 7, internal control, 16-point titration, six replicate wells, read-out: Treatment day, EC50 (GFP area)): 12.4 ± 1.2 nM | EC50 (C. elegans strain PE254 [4]): ~1 nM

CCNC(=O)C[C@@H]1N=C(c2ccc(Cl)cc2)c2cc(OC)ccc2-n2c(C)nnc21 [I-BET762]
activity on C. elegans viability in primary qHTS (in words) (C. elegans strain PE254 [1]; GFP area): Active

CC[C@H](C)[C@H](NC(=O)[C@H]([C@@H](C)CC)N(C)C(C)=O)C(=O)N[C@H](C(=O)N[C@@H](CC(C)C)C(=O)[C@@]1(C)CO1)[C@@H](C)O [Epoxomicin]
activity on C. elegans viability in primary qHTS (in words) (C. elegans strain PE254 [1]; GFP area): Inactive

COC[C@H](NC(=O)c1cnc(C)s1)C(=O)N[C@@H](COC)C(=O)N[C@@H](Cc1ccccc1)C(=O)[C@@]1(C)CO1 [Oprozomib]
activity on C. elegans viability in primary qHTS (in words) (C. elegans strain PE254 [1]; GFP area): Inactive
